The test system of data set [1] is large intestine of a mouse (normal mucosal tissue). As to the kind of experiment: Vital staining of normal mouse large intestine, imaging with multiphoton or confocal laser microscope. Format: in vivo. The settings on record: for structures stained in double staining: curcumin and Red #106 from lumen side, FIG. 4. The procedure:
(§1) 100 mg of curcumin (Tokyo Kasei, cat. #C2302, purity 97.0%) was suspended in 5 mL of ethanol, and further diluted 10-fold with ethanol. It was mixed with the same amount of glycerin, and further diluted 10-fold with glycerin. The mixture was mixed with the same amount of purified water to obtain a staining solution of curcumin. Regarding Red #106, its staining solution is obtained by dissolving the powder in saline to achieve a concentration of 1 mg/mL.
(§2) C57BL/6N mice purchased from Japan SLC, Inc. were used in the tests. All tests were performed on male, 8-week-old mice weighing 20˜25 grams.
(§3) A multiphoton laser microscope of FVMPE-RS (Olympus) was used with the irradiation wavelength of 800 nm, wherein the laser irradiation was performed at 5.8˜48.2% of its full power output. A confocal laser microscope of FV1000 (Olympus) was used with the irradiation wavelength of 488 nm and 594 nm, wherein the laser irradiation at 488 nm was performed at 15˜29.4% of its full power output, and the laser irradiation at 594 nm was performed at 13˜13.5% of its full power output.

The nature of data set [2]: Fluorescent color by laser irradiation. Format: physicochemical.
Excerpt: Regarding staining an organ tissue, the object in the organ to be visualized differs depending on the staining agent used. For example, curcumin and Red #3 are suitable for staining epithelial and glandular cells, as well as cancerous cells derived from them. On the other hand, Red #106 is suitable for staining connective tissue and capillaries. By laser irradiation, curcumin gives a green fluorescent color, while Red #3 and Red #106 give a red fluorescent color. Therefore, double staining with curcumin and Red #106 makes it easier to identify structure of cells in tissue by superimposing stained images. Accordingly, micro cancer tissue with diameter of about 1 mm and invasive cancer cell groups can be detected.
as §3

Data set [3] relates to large intestine (cancer tumor site) of a colon cancer mouse. As to the kind of experiment: Vital staining of the cancer tumor site of a colon cancer mouse, laser microscope imaging. Type of data set: in vivo. As for the experimental part:
as §1, §2
Model mice with colon cancer were prepared by intraperitoneally administering 10 mg/kg of azoxymethane (AOM) dissolved in saline 4 times at weekly intervals to the C57BL/6N mice.
as §3

For the next data set, the target named is T1, STAT3 (Homo sapiens, UniProt P40763).
T1 construct: endogenous in cells
T1 sequence (P40763 whole entry, species assumed): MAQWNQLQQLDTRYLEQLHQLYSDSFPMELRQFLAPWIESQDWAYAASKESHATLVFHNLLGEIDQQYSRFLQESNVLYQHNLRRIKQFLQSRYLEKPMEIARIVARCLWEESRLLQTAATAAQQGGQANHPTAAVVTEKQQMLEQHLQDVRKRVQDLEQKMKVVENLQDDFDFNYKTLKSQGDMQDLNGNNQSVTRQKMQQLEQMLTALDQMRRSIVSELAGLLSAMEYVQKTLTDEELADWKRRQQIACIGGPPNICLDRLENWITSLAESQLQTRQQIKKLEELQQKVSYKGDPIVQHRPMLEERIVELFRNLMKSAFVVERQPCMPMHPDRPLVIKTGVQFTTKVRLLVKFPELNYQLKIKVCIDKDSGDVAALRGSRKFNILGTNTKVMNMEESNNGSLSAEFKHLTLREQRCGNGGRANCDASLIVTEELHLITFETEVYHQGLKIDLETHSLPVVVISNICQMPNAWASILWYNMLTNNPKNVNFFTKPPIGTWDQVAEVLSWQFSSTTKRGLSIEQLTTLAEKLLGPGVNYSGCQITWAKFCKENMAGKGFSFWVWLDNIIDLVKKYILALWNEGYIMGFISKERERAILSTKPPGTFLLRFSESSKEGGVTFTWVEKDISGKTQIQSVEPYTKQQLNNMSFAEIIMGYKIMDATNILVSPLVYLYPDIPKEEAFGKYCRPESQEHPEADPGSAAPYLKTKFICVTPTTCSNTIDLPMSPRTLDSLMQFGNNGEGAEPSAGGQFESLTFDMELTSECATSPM
The experiment in a line: Staining of cells that overexpress a cancer-related gene product (STAT3). Type of data set: cell-based. The source says: For the visualization of expression patterns of cancer-related genes in living cells, the inventors stained a cancer-related gene product to chromatic color using staining agents containing edible dyes and photographed. An edible dye is a natural or artificial dye which has been permitted to be administered to human (For example, a dye for food coloring, or a dye that can be taken as supplements).
Specifically, a staining agent containing curcumins (C21H20O6) can be used to selectively stain a STAT3-based cancer-related gene product. In addition, a staining agent containing Red #3 (erythrosine) can be used to selectively stain the expression pattern of ras-based cancer-related gene.
More specifically, as a staining agent containing curcumins, a solution containing 1% by weight of curcumin was prepared. As a staining agent containing Red #3, a solution containing 1% by weight of phloxine was prepared. […]
When a staining agent containing curcumins is used, the expression of a STAT3-based cancer-related gene product in living cells can be visualized by staining. […] Accordingly, the nucleus surrounded by the cytoplasm is clearly visualized, making it clearer to be analyzed.

The subject of data set [4] is Auerbach's plexus in large intestine. As to the kind of experiment: Curcumin staining of freshly resected colon of a patient with Hirschsprung-like disease, multiphoton laser microscope. On the set-up: species or system human. As for the experimental part: In an embodiment of the present invention, curcumin was administered to a freshly resected colon from a patient with Hirschsprung-like disease, and then a multiphoton laser microscope was used to visualize Auerbach's plexus. […] (FIG. 39). Therefore, intraoperative rapid diagnosis by a multiphoton laser microscope of freshly resected large intestine of a patient with Hirschsprung-like disease can be performed and appropriate surgical resection sites can be confirmed.

The subject of data set [5] is olfactory receptor neurons. The experiment in a line: Vital staining by coating onto nasal mucosa, laser microscope. Type of data set: in vivo, mouse. The settings on record: coating on nasal mucosa. From the text: FIG. 26 is a diagram showing, at high magnification, examples of visualization with a multiphoton laser microscope of olfactory receptor neurons, which are odor sensory cells, after vital staining by coating curcumin onto nasal mucosa of a mouse. […] Since a nucleus is not stained, it is viewed as a black negative image. By coating curcumin on nasal mucosa, olfactory receptor neuronal cells, which are odor sensing cells, can be visualized. Accordingly, olfactory disorders can be examined.

The next data set has as its system taste bud. The experiment in a line: Vital staining by coating onto tongue mucosa, laser microscope. Format: in vivo, mouse. As to conditions: coating on tongue mucosa. From the text: FIG. 20 is a diagram showing, at high magnification, an example of visualization with a multiphoton laser microscope of a taste bud, which is a taste sensory device, after vital staining by coating curcumin onto tongue mucosa of a mouse. FIG. 20 to FIG. 22 are diagrams in which a taste bud, a taste sensory device, is visualized by a laser microscope after vital staining by coating curcumin on mouse tongue mucosa. FIG. 20 and FIG. 21 further show hematoxylin-eosin staining images of taste buds. The nuclei of sensory neuronal cells are not stained with curcumin, so that they are recognized as black negative images. By coating curcumin on oral mucosa, the neuronal cells of a taste bud, which is a taste sensory device, can be visualized. Accordingly, taste disorders can be examined in otolaryngologic field.

Data set [6] relates to optic nerve and optic ganglion cells of retina. As to the kind of experiment: Vital staining of retina by intraperitoneal administration, laser microscope. As to conditions: curcumin vital staining. Type of data set: in vivo, mouse. The source says: FIG. 38 is a diagram of visualization of optic nerves and the optic ganglion cells of retina in vivo after vital staining by intraperitoneal administration of sulforhodamine 101 and curcumin to a mouse. (A) is a diagram of visualization of blood vessels fluorescently labeled with sulforhodamine 101 and a bundle of optic nerve fluorescence-labeled with curcumin. […] In an embodiment of the present invention, the nerve cell layer of retina can be visualized by vital staining with curcumin (FIG. 37). According to FIG. 37, it can be seen that in the layer structure of retina, the cell layer of optic ganglion, inner plexiform layer, bipolar cell layer, outer plexiform layer, and outer nuclear layer can be identified. It can be seen that the blood vessel travel and the optic nerve bundle in retina can be visualized at the same time by double staining with blood vessel staining dye (sulforhodamine 101) and curcumin (FIG. 38A). […] Accordingly, the present invention is very useful for detecting retinal diseases.

The subject of data set [7] is nerve fibers (myelin sheath). The experiment in a line: Vital staining of nerve fibers, multiphoton laser microscope. Type of data set: in vivo, mouse. The settings on record: intraperitoneal administration, FIG. 25. The source says: FIG. 25 is a diagram showing, at high magnification, examples of visualization with a laser multiphoton microscope of olfactory nerve fibers after vital staining by intraperitoneal administration of curcumin to a mouse.

The test system of another data set is RAS. The experiment in a line: Staining of cells that overexpress a cancer-related gene product (RAS). Format: cell-based. The source says: For the visualization of expression patterns of cancer-related genes in living cells, the inventors stained a cancer-related gene product to chromatic color using staining agents containing edible dyes and photographed. An edible dye is a natural or artificial dye which has been permitted to be administered to human (For example, a dye for food coloring, or a dye that can be taken as supplements). Specifically, a staining agent containing curcumins (C21H20O6) can be used to selectively stain a STAT3-based cancer-related gene product. In addition, a staining agent containing Red #3 (erythrosine) can be used to selectively stain the expression pattern of ras-based cancer-related gene. More specifically, as a staining agent containing curcumins, a solution containing 1% by weight of curcumin was prepared. As a staining agent containing Red #3, a solution containing 1% by weight of […] was prepared. As a staining agent containing curcumins, a curcumin solution 5˜100-fold diluted from its stock solution (for example, a liquid containing 5% curcumin solution, 45% glycerol, and 50% ethanol) with physiological saline can be used. […] Accordingly, the nucleus surrounded by the cytoplasm is clearly visualized, making it clearer to be analyzed.

The mark [8] stands for this setting: normal large intestine, five-layer structure.
Setting [9] is: isolated large intestine, stained from serosa side.
[10] abbreviates: normal mucosal tissue of large intestine, FIG. 3.
The mark [11] stands for this setting: stained and photographed from luminal side.

“Also recorded” adds a separate entry of the source.

As for `CCN(CC)c1ccc2c(-c3ccc(S(=O)(=O)[O-])cc3S(=O)(=O)[O-])c3ccc(=[N+](CC)CC)cc-3oc2c1.[Na+]` [Red #106], the “structures stained in double staining” value in [1] (isolated large intestine) is “connective tissue, capillaries and cell membranes of epithelial and glandular cells”. Also, in data set [1] (setting [8]), the “staining of the network of capillaries surrounding the glandular structures of epithelial and glandular layers (1)” value is “strongly positively”; the “staining of the smooth muscle in muscle layer (4)” value is reported as “slightly positively; also recorded: strongly stained; also recorded: strongly positively”; the “staining of the smooth muscle in muscularis mucosae (2)” value is given as “slightly positively; also recorded: moderately positively”; the “staining of the wall of a thick blood vessel inside muscle layer” value is recorded as “strongly positively; also recorded: strongly stained”. In data set [2], the fluorescent color result is “red”.

Regarding `COc1cc(/C=C/C(=O)CC(=O)/C=C/c2ccc(O)c(OC)c2)ccc1O` [curcumin], in data set [1] (isolated large intestine), the “structures stained in double staining” value is “cytoplasm of epithelial and glandular cells”. In data set [1] (setting [9]), the “staining of nerve fibers of Auerbach's plexus” value is “moderately” and the “staining of perikaryon of Auerbach's plexus” value is “strongly”. In addition, in data set [1] (setting [8]), the “staining of Auerbach's plexus inside muscle layer” value is listed as “strongly positively”; the “staining of epithelial and glandular cells in epithelial and glandular layers (1)” value was “strongly positively”; the “staining of the smooth muscle in muscle layer (4)” value was “slightly positively”; the “staining of the smooth muscle in muscularis mucosae (2)” value is on record as “moderately positively; also recorded: severely positively”. Further, in data set [1] (setting [10]), the “staining of the cytoplasm of epithelial cells and gland cells” value was “stained”; the “staining of the nucleus of epithelial cells and gland cells” value is “not stained”. Also, the “staining of the nucleus in perikaryon of Meissner's plexus” value in data set [1] (stained from serosa side) is “does not stain the nucleus”. Further, the “staining of the nucleus in perikaryon of Auerbach's plexus” value in data set [1] (stained from serosa side, high magnification) is recorded as “does not stain the nucleus”. In data set [3] (cancer cells versus surrounding tissue / normal cells), the “staining of cancer cells relative to surrounding or normal tissue” value is “darker than surrounding tissue”. Besides, in data set [3] (setting [11]), the “staining of cytoplasm of cancer cells” value is reported as “severely positively” and the “staining of nuclei of cancer cells” value is given as “negatively”. The fluorescent color result in data set [2] is recorded as “green”. Moreover, the “staining of cells that overexpress STAT3” value at STAT3 is “can stain cells that overexpress STAT3”. Further, the “identification of the normal part and malformation part of Auerbach's plexus” value in data set [4] is recorded as “clearly identified”. Further, in data set [5], the “staining of cytoplasm of olfactory receptor neurons and cilia having odor receptors” value is “stained positively”; the “staining of nucleus of olfactory receptor neurons” value is on record as “not stained”. Moreover, in the data set with taste bud, the “staining of nuclei of sensory neuronal cells of taste bud” value is “not stained”. In addition, in data set [6], the “signal of the cytoplasm of optic nerve and small/large ganglion cells” value was “positive signal”; the “signal of the nucleus of optic nerve and small/large ganglion cells” value is listed as “negative signal”. Further, the “staining of myelin sheath” value in data set [7] is “can stain myelin sheath”.

On to `O=C1OC2(c3ccccc31)c1cc(I)c(O)c(I)c1Oc1c2cc(I)c(O)c1I` [Red #3, erythrosine], for which the fluorescent color entry in data set [2] was “red”. In addition, the “staining of cells that overexpress RAS” value with RAS is “can stain”.

The record behind these values is US20220211876A1, “LESION DETECTION METHOD” (MIE UNIVERSITY, priority 2019, published 2022).
